Where two headings read alike, the source gives them in different places.

Common to all, as to assay type: in vivo
Assay [1] has as its system San Jose Scale (Quadraspidiotus perniciosus). Put plainly: Bioassay on San Jose Scale, foliar spray on cotton plants. The conditions noted are these: Diaspidiotus perniciosus, 216 h; 200 ppm foliar spray on cotton plants, live nymphs counted 9 days after infestation, Abbott corrected % control; read-out: Scale @ 200 ppm, % Control (or Mortality) rating. As for the experimental part:
Certain molecules disclosed in this document were tested against Scale using procedures described in the following example. In the reporting of the results, the “Table 4: GPA, Scale and WF Rating Table” was used (See Table Section).
Cotton plants (Gossypium hirsutum) grown in 3-inch pots, with 1 small (4-5 cm) true leaves, were used as test substrate. The plants were infested with 200-400 scale crawlers 1-2 hours after chemical application. Four pots with individual plants were used for each treatment. Test compounds (2 mg) were dissolved in 1 mL of acetone solvent, forming stock solutions of 2000 ppm test compound. The stock solutions were diluted 10× with 0.025% Tween 20 in H2O (diluents) to obtain the solution at 200 ppm test compound. A hand-held aspirator-type sprayer was used for spraying a solution to both sides of cotton leaves until runoff. Reference plants (solvent check) were sprayed with the diluent only containing 10% by volume of acetone solvent. Treated plants were held in a holding room for three days at approximately 25° C. and ambient relative humidity (RH) prior to grading. Evaluation was conducted by counting the number of live 2-3 nymphal stage per plant under a microscope 9 days after infestation. Percent Control was measured by using Abbott's correction formula (W. S. Abbott, “A Method of Computing the Effectiveness of an Insecticide” J. Econ. Entomol. 18 (1925), pp. 265-267) as follows.
Corrected % Control=100*(X−Y)/X • where • X=No. of live nymphs on solvent check plants and • Y=No. of live nymphs on treated plants
(§1) The results are indicated in the table entitled “Table 5: BAW, CEW, GPA, Scale and WF Results” (See Table Section).

Assay [2] relates to Beet Armyworm (BAW) (Spodoptera exigua). Put plainly: Bioassay on Beet Armyworm (BAW), 128-well diet tray assay. The following applies: 120 h. The method, then:
Certain molecules disclosed in this document were tested against BAW and CEW using procedures described in the following examples. In the reporting of the results, the “Table 3: BAW & CEW Rating Table” was used (See Table Section).
Bioassays on BAW (Spodoptera exigua)
Bioassays on BAW were conducted using a 128-well diet tray assay. […] Trays were covered with a clear self-adhesive cover, and held at 25° C., 14:10 light-dark for five days. Percent mortality was recorded for the larvae in each well; activity in the eight wells was then averaged. The results are indicated in the table entitled “Table 5: BAW, CEW, GPA, Scale and WF Results” (See Table Section).

Assay [3] deals with Green Peach Aphid (GPA) (Myzus persicae). In words: Bioassay on Green Peach Aphid (GPA), foliar spray on cabbage seedlings. The following applies: 72 h, 200 ppm foliar spray on cabbage seedlings, graded after three days, Abbott corrected % control, read-out: GPA @ 200 ppm, % Control (or Mortality) rating. The method, then:
Certain molecules disclosed in this document were tested against GPA using procedures described in the following example. In the reporting of the results, the “Table 4: GPA, Scale and WF Rating Table” was used (See Table Section).
Cabbage seedlings grown in 3-inch pots, with 2-3 small (3-5 cm) true leaves, were used as test substrate. The seedlings were infested with 20-50 GPA (wingless adult and nymph stages) one day prior to chemical application. Four pots with individual seedlings were used for each treatment. Test compounds (2 mg) were dissolved in 2 mL of acetone/methanol (1:1) solvent, forming stock solutions of 1000 ppm test compound. The stock solutions were diluted 5× with 0.025% Tween 20 in H2O to obtain the solution at 200 ppm test compound. A hand-held aspirator-type sprayer was used for spraying a solution to both sides of […] leaves until runoff. Reference plants (solvent check) were sprayed with the diluent only containing 20% by volume of acetone/methanol (1:1) solvent. Treated plants were held in a holding room for three days at approximately 25° C. and ambient relative humidity (RH) prior to grading. Evaluation was conducted by counting the number of live aphids per plant under a microscope. Percent Control was measured by using Abbott's correction formula (W. S. Abbott, “A Method of Computing the Effectiveness of an Insecticide” J. Econ. Entomol. 18 (1925), pp. 265-267) as follows.
Corrected % Control=100*(X−Y)/X • where • X=No. of live aphids on solvent check plants and • Y=No. of live aphids on treated plants
as §1

Assay [4] has as its system Sweet Potato Whitefly (WF) (Bemisia tabaci). In words: Bioassay on Sweet Potato Whitefly (WF), foliar spray on cotton plants. The conditions noted are these: 216 h, 200 ppm foliar spray on cotton plants, graded after 9 days, Abbott corrected % control, read-out: WF @ 200 ppm, % Control (or Mortality) rating. The method, then: Certain molecules disclosed in this document were tested against WF using procedures described in the following example. In the reporting of the results, the “Table 4: GPA, Scale and WF Rating Table” was used (See Table Section).
Cotton plants (Gossypium hirsutum) grown in 3-inch pots, with 1 small (4-5 cm) true leaves, were used as test substrate. The plants were infested with 200-400 whitefly eggs 4-5 days prior to chemical application. Four pots with individual plants were used for each treatment. Test compounds (2 mg) were dissolved in 1 mL of acetone solvent, forming stock solutions of 2000 ppm test compound. The stock solutions were diluted 10× with 0.025% Tween 20 in H2O (diluents) to obtain the solution at 200 ppm test compound. A hand-held aspirator-type sprayer was used for spraying a solution to both sides of cotton leaves until runoff. Reference plants (solvent check) were sprayed with the diluent only containing 10% by volume of acetone solvent. Treated plants were held in a holding room for 9 days at approximately 25° C. and ambient relative humidity (RH) prior to grading. Evaluation was conducted by counting the number of live 3-4 nymphal stage per plant under a microscope. Percent Control was measured by using Abbott's correction formula (W. S. Abbott, “A Method of Computing the Effectiveness of an Insecticide” J. Econ. Entomol. 18 (1925), pp. 265-267) as follows.
Corrected % Control=100*(X−Y)/X • where • X=No. of live nymphs on solvent check plants and • Y=No. of live nymphs on treated plants.
as §1

Setting [5] is: second instar larvae on treated artificial diet, five days, 25° C., read-out: BAW, % Control (or Mortality) rating.

Consider `CSc1nc(-c2cn(-c3cccnc3)nc2C)cc(C(F)(F)F)n1` [Compound 13], for which the mortality at 200 ppm in assay [1] and in assay [3] was 0 to 80% each time. Moreover, the mortality in assay [2] (setting [5]) was 50 to 100%.
With `Cc1ncccc1-c1cn(-c2cccnc2)nc1C` [Compound 28], the mortality at 200 ppm in assay [1] was in the range of 80 to 100%; in assay [3], 80 to 100%; in assay [4], 0 to 80%. Also, the mortality in assay [2] (setting [5]) lay in the range of 50 to 100%.
Turning to `COc1cccc(-c2cn(-c3cccnc3)nc2C)n1` [Compound 19], the mortality at 200 ppm in assay [1] was 80 to 100%; in assay [3], 80 to 100%; in assay [4] it was 0 to 80%. The mortality in assay [2] (setting [5]) was 50 to 100%.
In the case of `Cc1nn(-c2cccnc2)cc1-c1cc(C(F)(F)F)ncn1` [Compound 10], the mortality at 200 ppm in assay [1] and in assay [3] was 80 to 100% in each case. In addition, the mortality in assay [2] (setting [5]) fell in the range of 50 to 100%.
For the molecule `COc1cc(-c2cn(-c3cccnc3)nc2C)nc(OC)n1` [Compound 12], the values for the mortality at 200 ppm in assay [1] and in assay [3] were 0 to 80% and 80 to 100%, respectively. Further, in assay [2] (setting [5]), the mortality fell in the range of 50 to 100%.
Turning to `Cc1nn(-c2cccnc2)cc1-c1cccnc1` [Compound 23], the mortality at 200 ppm in assay [1] lay in the range of 80 to 100%; in assay [3], 80 to 100%; in assay [4], 0 to 80%. Further, the mortality in assay [2] (setting [5]) is 50 to 100%.
On to `Fc1cncc(-n2cc(-c3cccc(C(F)(F)F)n3)c(Cl)n2)c1` [Compound 7], for which the mortality at 200 ppm in assay [1] and in assay [3] was 80 to 100% each time. Moreover, the mortality in assay [2] (setting [5]) was in the range of 50 to 100%.
`Cc1nn(-c2cccnc2)cc1-c1cc(C(F)(F)F)ccn1` [Compound 22]: the mortality at 200 ppm in assay [1], in assay [3] and in assay [4] was 80 to 100% each time. Further, the mortality in assay [2] (setting [5]) lay within 50 to 100%.
Take `Cc1cc(-c2cn(-c3cccnc3)nc2C)ccn1` [Compound 30]: the values for the mortality at 200 ppm in assay [1], in assay [3] and in assay [4] were 0 to 80%, 80 to 100% and 0 to 80%, respectively. Moreover, the mortality in assay [2] (setting [5]) is 50 to 100%.
For the molecule `Cc1cncc(-c2cn(-c3cccnc3)nc2C)c1` [Compound 27], the mortality at 200 ppm in assay [1] was 0 to 80%; in assay [3] it was 80 to 100%; in assay [4], 80 to 100%. Further, the mortality in assay [2] (setting [5]) was in the range of 50 to 100%.
In the case of `FC(F)(F)c1ccc(-c2cnn(-c3cccnc3)c2)cn1` [Compound 2, 5-(1-(pyridin-3-yl)-1H-pyrazol-4-yl)-2-(trifluoromethyl)pyridine], the mortality at 200 ppm in assay [1] was 0%; in assay [3] it was 80 to 100%. Also, the mortality in assay [2] (setting [5]) is 50 to 100%.
With `COc1ccc(-c2cn(-c3cccnc3)nc2C)cn1` [Compound 25], the figures for the mortality at 200 ppm in assay [1], in assay [3] and in assay [4] were 80 to 100%, 80 to 100% and 0 to 80%, respectively. The mortality in assay [2] (setting [5]) fell in the range of 50 to 100%.
With `COc1ccnc(-c2cn(-c3cccnc3)nc2C)n1` [Compound 9], the mortality at 200 ppm in assay [1] and in assay [3] was 80 to 100% throughout. For the same molecule, in assay [2] (setting [5]), the mortality is 50 to 100%.
With `Cc1nn(-c2cncc(F)c2)cc1-c1cccc(C(F)(F)F)n1` [Compound 3, 2-(1-(5-fluoropyridin-3-yl)-3-methyl-1H-pyrazol-4-yl)-6-(trifluoromethyl)pyridine], the mortality at 200 ppm in assay [1] and in assay [3] was 80 to 100% each time. Moreover, the mortality in assay [2] (setting [5]) lay within 50 to 100%.
As for `Cc1nn(-c2cccnc2)cc1-c1ccnc(C(F)(F)F)n1` [Compound 5], the mortality at 200 ppm in assay [1] and in assay [3] was 80 to 100% in each case. In addition, the mortality in assay [2] (setting [5]) is 50 to 100%.
`Cc1nn(-c2cccnc2)cc1-c1ccc(C(F)(F)F)cn1` [Compound 21]: the mortality at 200 ppm in assay [1], in assay [3] and in assay [4] was 80 to 100% in each case. For the same molecule, the mortality in assay [2] (setting [5]) lay in the range of 50 to 100%.
On to `CSc1cccc(-c2cn(-c3cccnc3)nc2C)c1` [Compound 17, 3-(3-methyl-4-(3-(methylthio)phenyl)-1H-pyrazol-1-yl)pyridine], for which the mortality at 200 ppm in assay [1] was 0 to 80%; in assay [3], 80 to 100%; in assay [4] it was 0%. Moreover, the mortality in assay [2] (setting [5]) was 50 to 100%.
In the case of `Cc1nccc(-c2cn(-c3cccnc3)nc2C)n1` [Compound 8], the mortality at 200 ppm in assay [1] and in assay [3] was 80 to 100% each time. The mortality in assay [2] (setting [5]) fell in the range of 50 to 100%.
For `Cc1ccc(-c2cn(-c3cccnc3)nc2C)cn1` [Compound 26], the mortality at 200 ppm in assay [1], in assay [3] and in assay [4] was 80 to 100% throughout. Further, the mortality in assay [2] (setting [5]) lay within 50 to 100%.
Turning to `Cc1nn(-c2cccnc2)cc1-c1cccc(C(F)(F)F)n1` [Compound 4], the mortality at 200 ppm in assay [1] and in assay [3] was 80 to 100% throughout. In addition, the mortality in assay [2] (setting [5]) was 50 to 100%.
As to `Cc1nn(-c2cccnc2)cc1-c1ccc(C(F)(F)F)nc1` [Compound 29], the mortality at 200 ppm in assay [1], in assay [3] and in assay [4] was 80 to 100% throughout. For the same molecule, the mortality in assay [2] (setting [5]) was in the range of 50 to 100%.
Take `COc1cc(-c2cn(-c3cccnc3)nc2C)ncn1` [Compound 11]: the figures for the mortality at 200 ppm in assay [1] and in assay [3] were 0 to 80% and 80 to 100%, respectively. In addition, the mortality in assay [2] (200 ppm, second instar larvae on treated artificial diet, five days, 25° C., read-out: BAW @ 200 ppm, % Control (or Mortality) rating) lay in the range of 50 to 100%.
`FC(F)(F)c1cccc(-c2cnn(-c3cccnc3)c2)n1` [Compound 1, 2-(1-(pyridin-3-yl)-1H-pyrazol-4-yl)-6-(trifluoromethyl)pyridine]: the mortality at 200 ppm in assay [1] lay within 80 to 100%; in assay [3], 80 to 100%; in assay [4], 0 to 80%. Further, the mortality in assay [2] (read-out: BAW, % Control (or Mortality) rating) was 50 to 100%.

What is called mortality is the percentage killed.

Source of the values: patent US20120220453A1, “PESTICIDAL COMPOSTIONS AND PROCESSES RELATED THERETO” (priority 2011, published 2012).
